Where two headings read alike, the source gives them in different places.
What was measured:
[1] = tested on: parental HEK cells; assay: HEK parental Agonist Counterscreen Assay (non-transfected cells); format: cell-based; conditions: for Averaged Max % Response (±St. Dev.): activity relative to known control
Excerpt: The high control for the agonist counterscreen was Forskolin not acetylcholine.

[2] = target: T1, GPR139 (Homo sapiens, UniProt Q6DWJ6); assay: GPR139 Agonist titration / agonist counterscreen assay (calcium detection, HEK-GPR139 cells); format: cell-based; parameters: expressed in transfected cells; host or cells: HEK Aequorin cells, Maxcyte transient transfection; conditions: GPR139 Agonist Activity; for Averaged Max % Response (±St. Dev.): activity relative to known control; for EC50: read-out: EC50
T1 sequence (Q6DWJ6 1-353): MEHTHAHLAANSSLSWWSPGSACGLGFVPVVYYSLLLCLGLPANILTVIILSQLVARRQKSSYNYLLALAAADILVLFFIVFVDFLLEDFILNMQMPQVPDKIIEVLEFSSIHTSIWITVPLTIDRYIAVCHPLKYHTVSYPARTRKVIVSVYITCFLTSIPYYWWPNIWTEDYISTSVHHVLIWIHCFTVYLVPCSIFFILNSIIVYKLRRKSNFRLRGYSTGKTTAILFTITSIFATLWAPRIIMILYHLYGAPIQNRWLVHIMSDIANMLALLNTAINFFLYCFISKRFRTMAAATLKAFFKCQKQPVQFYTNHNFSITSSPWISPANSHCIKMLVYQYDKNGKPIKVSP
Description: GPR activity was assessed using a calcium detection assay. […] Negative control samples were treated with DMSO. […] Intracellular calcium was measured using Calcium 5.

[3] = Homo sapiens, HEK293, HEK Agonist Activity section of Table 4 (parental HEK counterscreen)
[4] = HEK Agonist Activity section of Table 4 (parental HEK counterscreen)
[5] = values printed in E-notation without unit

| Compound | Lipophilic Efficiency (logD) ([1]; HEK Agonist Activity section) | Lipophilic Efficiency (logP) ([1]; HEK Agonist Activity section) | Averaged Max % Response (±St. Dev.) ([1]; HEK Agonist Activity section) [%] | EC50 [1, 3] [nM] | Averaged Max % Response (±St. Dev.) [2] [%] | Lipophilic Efficiency (logD) ([2]; based on logD) | Lipophilic Efficiency (logP) ([2]; based on logP) | Hill Slope ([2]; fitted dose-response curve) | Efficiency Ligand ([2]; ligand efficiency) | EC50 [1, 4] [nM] | Efficiency Ligand [2] | Hill Slope [2] | Lipophilic Efficiency (logD) [2] | Lipophilic Efficiency (logP) [2] | EC50 ([2]; HEK-GPR139 cells) [nM] | EC50 [2, 5] [nM] | Lipophilic Efficiency (logD) ([1]; HEK Agonist Activity) | Lipophilic Efficiency (logP) ([1]; HEK Agonist Activity) | Averaged Max % Response (±St. Dev.) ([1]; HEK Agonist Activity) [%] | EC50 ([1]; Homo sapiens, HEK293, HEK Agonist Activity, parental non-transfected HEK cells) [nM] |
| --- | --- | --- | --- | --- | --- | --- | --- | --- | --- | --- | --- | --- | --- | --- | --- | --- | --- | --- | --- | --- |
| C=C1C(CC(=C)C2Cc3ccc4ccccc4c3C2)=CC(c2ccccc2)=CC1C (stereo not shown) [SR-00000002785] | 2.62 | 2.62 | −10.50 ± 3.98 | > 14100 | 80.59 ± 9.85 | 4.66 | 4.66 | 0.95 | 0.32 | – | – | – | – | – | – | – | – | – | – | – |
| N[C@H](Cc1ccccc1Cl)c1nc2ccc(-c3ccncc3)cc2[nH]1.O=C(O)C(F)(F)F.O=C(O)C(F)(F)F [SR-00000003277] | 2.04 | 1.13 | 29.67 ± 5.05 | – | 97.54 ± 11.30 | – | – | – | – | > 14100 | 0.34 | 1.48 | 3.23 | 2.32 | 928 | – | – | – | – | – |
| CN(C)CCOc1cc(-c2cn[nH]c2)ccc1NC(=O)C1COc2ccc(F)cc2C1.O=C(O)C(F)(F)F.O=C(O)C(F)(F)F (stereo not shown) [SR-00000004118] | – | – | 13.55 ± 13.03 | – | 94.30 ± 8.24 | – | – | 1.08 | – | > 14100 | – | – | – | – | – | – | – | – | – | – |
| CN(C)CCOc1cc(NC(=O)C2COc3ccccc3C2)ccc1-c1cn[nH]c1.O=C(O)C(F)(F)F.O=C(O)C(F)(F)F (stereo not shown) [SR-00000004123] | 3.26 | 1.93 | 3.68 ± 4.29 | – | 79.85 ± 11.38 | – | – | – | – | > 14100 | 0.28 | 0.37 | 4.48 | 3.15 | 847 | – | – | – | – | – |
| Cl.Cl.Nc1[nH]ncc1-c1ccc(NC(=O)[C@H](N)Cc2cccc(F)c2)cc1 [SR-00000004378] | 3.65 | 2.98 | −19.97 ± 10.80 | – | 72.99 ± 14.39 | – | – | – | – | > 14100 | 0.34 | 0.72 | 4.84 | 4.17 | 914 | – | – | – | – | – |
| CCCCCc1cc(C2=CCC=C2)ccc1CC(=O)C1CCc2ccccc2C1 (stereo not shown) [SR-00000004451] | 4.36 | 2.31 | 3.04 ± 3.40 | > 14100 | 92.93 ± 0.53 | 6.38 | 4.33 | 0.70 | 0.33 | – | – | – | – | – | – | – | – | – | – | – |
| O=C(Nc1ccc(-c2c[nH]cn2)cc1)C1COc2ccc(F)cc2C1 (stereo not shown) [SR-00000004710] | 1.65 | 1.64 | −8.04 ± 14.30 | > 14100 | 89.55 ± 3.66 | – | – | – | – | – | 0.35 | 0.90 | 3.12 | 3.11 | 477 | – | – | – | – | – |
| COc1cccc(CNC(=O)Nc2ccc(-c3cn[nH]c3)cc2)c1 [SR-00000005253] | 2.23 | 2.23 | −10.69 ± 5.73 | > 14100 | 80.15 ± 4.78 | 4.08 | 4.08 | 0.64 | 0.39 | – | – | – | – | – | – | 202 | – | – | – | – |
| Cc1cccc(CNC(=O)Nc2ccc(-c3cn[nH]c3)cc2)c1.O=C(O)C(F)(F)F [SR-00000005301] | 1.56 | 1.56 | 8.29 ± 4.70 | – | 86.84 ± 8.43 | – | – | – | – | > 14100 | 0.40 | 0.94 | 3.26 | 3.26 | 281 | – | – | – | – | – |
| COc1ccc(CNC(=O)Nc2ccc(-c3cn[nH]c3)cc2)cc1.O=C(O)C(F)(F)F [SR-00000005347] | 2.23 | 2.23 | 11.55 ± 3.19 | – | 110.92 ± 4.82 | 4.10 | 4.10 | 0.58 | 0.39 | > 14100 | – | – | – | – | – | 189 | – | – | – | – |
| O=C(Nc1ccc(-c2cn[nH]c2)cc1OCCN1CCCC1)C1COc2ccc(F)cc2C1.O=C(O)C(F)(F)F.O=C(O)C(F)(F)F (stereo not shown) [SR-00000005389] | 2.79 | 1.38 | 31.02 ± 4.14 | – | 116.35 ± 10.47 | 4.67 | 3.26 | 0.77 | 0.29 | > 14100 | – | – | – | – | – | 186 | – | – | – | – |
| Cc1[nH]ncc1-c1ccc(NC(=O)C2COc3ccc(F)cc3C2)c(OCCN2CCOCC2)c1.O=C(O)C(F)(F)F.O=C(O)C(F)(F)F (stereo not shown) [SR-00000005393] | 1.92 | 1.87 | 10.82 ± 8.56 | – | 87.23 ± 6.46 | – | – | – | – | > 14100 | 0.25 | 0.94 | 3.27 | 3.22 | 629 | – | – | – | – | – |
| COC(=O)c1ccc(CNC(=O)Nc2ccc(-c3cn[nH]c3)cc2)cc1.O=C(O)C(F)(F)F [SR-00000005410] | 2.07 | 2.07 | 7.35 ± 2.40 | – | 99.92 ± 5.04 | – | – | – | – | > 14100 | 0.31 | 1.14 | 2.93 | 2.93 | 1900 | – | – | – | – | – |
| COc1ccc(CCC(=O)Nc2ccc(-c3cn[nH]c3)c(OC)c2)cc1 [SR-00000005955] | 1.73 | 1.73 | 18.59 ± 8.23 | > 14100 | 95.13 ± 3.75 | 4.08 | 4.08 | 1.31 | 0.39 | – | – | – | – | – | – | 62 | – | – | – | – |
| CN1CCC(Oc2cc(-c3cn[nH]c3)ccc2NC(=O)C2COc3ccc(F)cc3C2)C1 (stereo not shown) [SR-00000006339] | – | – | – | – | 103.42 ± 7.86 | 6.10 | 5.03 | 0.54 | 0.35 | – | – | – | – | – | – | 9 | 2.91 | 1.83 | 5.16 ± 8.02 | > 14100 |

— patent US20250099420A1, “SMALL MOLECULE MODULATORS OF GPR139 COMPLEX” (University of Florida Research Foundation, Incorporated, priority 2022, published 2025)
